For 8 molecules, MIC, MICantibiotic and MICchloramphenicol results are on record in PMC8963254, “Effects of Lysine N-ζ-Methylation in Ultrashort Tetrabasic Lipopeptides (UTBLPs) on the Potentiation of Rifampicin, Novobiocin, and Niclosamide in Gram-Negative Bacteria” (Antibiotics, 2022).

Assay [1] concerns P. aeruginosa PA259-96196. Briefly: microbe, parasite or virus in culture. Type of assay: cell-based, Pseudomonas aeruginosa. The following applies: Pseudomonas aeruginosa, PA25996196, 18 h; P. aeruginosa 259-96196; read-out: MICs of various antibiotics. Here is the method:
(§1) The in vitro antibacterial activity of the UTBLPs was assessed against wild-type and clinically isolated bacterial strains. To obtain the MIC of the compounds, the microbroth dilution susceptibility assay was performed according to the Clinical and Laboratory Standards Institute (CLSI, Wayne, PA, USA) guidelines and as previously described. Briefly, the compounds at varying concentrations were incubated with bacterial inoculum (5 × 10^5 CFU/mL final concentration) at 37 °C for 18 h. Growth in the form of turbidity was confirmed using an EMax Plus microplate reader (Molecular Devices, San Jose, CA, USA) at 590 nm.

For assay [2], the system named is P. aeruginosa PA262-101856. Briefly: microbe, parasite or virus in culture. The following applies: Pseudomonas aeruginosa, PA262101856, 18 h; P. aeruginosa 262-101856; read-out: MICs of various antibiotics. Type of assay: cell-based, Pseudomonas aeruginosa. Here is the method:
as §1

A further assay relates to A. baumannii AB027. Briefly: microbe, parasite or virus in culture. It is filed as cell-based, Acinetobacter baumannii. The note with it: Acinetobacter baumannii, 18 h; A. baumannii AB027; read-out: MICs of various antibiotics. Here is the method: as §1
Another assay has as its system E. coli 94393. Briefly: microbe, parasite or virus in culture. It is filed as cell-based, Escherichia coli. The note with it: Escherichia coli, 18 h; E. coli 94393 (mcr-1 +); read-out: MICs of various antibiotics. Here is the method:
as §1

The next assay concerns E. coli 94474. Briefly: microbe, parasite or virus in culture. The note with it: Escherichia coli, 18 h; E. coli 94474 (mcr-1 +); read-out: MICs of various antibiotics. It is filed as cell-based, Escherichia coli. Here is the method:
as §1

The next assay relates to E. cloacae 118564. Briefly: microbe, parasite or virus in culture. It is filed as cell-based, Enterobacter cloacae. The note with it: Enterobacter cloacae, 18 h; E. cloacae 118564; read-out: MICs of various antibiotics. Here is the method: as §1
The test system of another assay is K. pneumoniae 113250. Briefly: microbe, parasite or virus in culture. Type of assay: cell-based, Klebsiella pneumoniae. The note with it: Klebsiella pneumoniae, 18 h; K. pneumoniae 113250; read-out: MICs of various antibiotics. Here is the method: as §1
A further assay deals with P. aeruginosa PAO1. Type of assay: cell-based, Pseudomonas aeruginosa. The note with it: chloramphenicol alone. Here is the method: (§2) The synergy of the UTBLPs with various antibiotics was assessed using checkerboard assay as previously described. Briefly, the combination of antibiotic and OMP at varying concentrations were incubated with bacterial inoculum (5 × 10^5 CFU/mL final concentration) at 37 °C for 18 h. Growth in the form of turbidity was confirmed using an EMax Plus microplate reader (Molecular Devices, Union City, CA, USA) at 590 nm. Fractional inhibitory concentration index (FICI) was used to evaluate the interaction between the antibiotic and the OMP. FICI is the sum of the FIC of the antibiotic and the FIC of the OMP. The FIC value is calculated by dividing the MIC of the agents in combination by the MIC of the agent alone. FICI ≤ 0.5 is synergistic, 0.5 < x ≤ 4 is additive, and >4 is antagonistic.

In a further assay the test system is A. baumannii ATCC 17978. Type of assay: cell-based, Acinetobacter baumannii. The following applies: chloramphenicol alone. Here is the method:
as §2

A further assay has as its system MRSA ATCC 33592. It is filed as cell-based, Staphylococcus aureus. The following applies: chloramphenicol alone. Here is the method:
as §2

Another assay deals with S. aureus ATCC 29213. Type of assay: cell-based, Staphylococcus aureus. The note with it: chloramphenicol alone. Here is the method:
as §2

The next assay deals with MRSE 61589. Type of assay: cell-based, Staphylococcus epidermidis. The note with it: chloramphenicol alone. Here is the method:
as §2

The subject of another assay is MSSE 81388. It is filed as cell-based, Staphylococcus epidermidis. The note with it: chloramphenicol alone. Here is the method: as §2
Another assay has as its system E. faecalis ATCC 29212. It is filed as cell-based, Enterococcus faecalis. The following applies: chloramphenicol alone. Here is the method:
as §2

Another assay concerns E. faecium ATCC 27270. Type of assay: cell-based, Enterococcus faecium. The note with it: chloramphenicol alone. Here is the method: as §2

The structures appear in SMILES notation. Values after ≈ are worked out from the molar mass of the structure shown. Values joined by “and” are separate entries in the source; they are usually repeats but may differ in a detail not shown here. Equal values may be shown once.

On to `COc1c(N2C[C@@H]3CCCN[C@@H]3C2)c(F)cc2c(=O)c(C(=O)O)cn(C3CC3)c12` [MOX, moxifloxacin], for which the MIC in assay [1] was over 16 µg/mL; in assay [2], over 16 µg/mL; in the assay with A. baumannii AB027 it was 8 µg/mL (≈ 19.9 µM); in the assay on E. coli 94393 it was 1 µg/mL (≈ 2.49 µM); with E. coli 94474, 16 µg/mL (≈ 39.9 µM); in the assay on E. cloacae 118564, 0.12 µg/mL (≈ 0.299 µM). Further, in the assay with K. pneumoniae 113250, the MIC was at most 0.06 µg/mL.
For the molecule `NC[C@H]1O[C@H](O[C@H]2[C@H](O)[C@@H](O[C@H]3O[C@H](CO)[C@@H](O)[C@H](N)[C@H]3O)[C@H](N)C[C@@H]2N)[C@H](N)C[C@@H]1O` [TOB, tobramycin], the MIC is 256 µg/mL (≈ 548 µM) in [1]; 1020 µg/mL (≈ 2190 µM) in [2]; at most 0.5 µg/mL with E. coli 94393; 32 µg/mL (≈ 68.4 µM) in the assay with E. coli 94474; 1 µg/mL (≈ 2.14 µM) with E. cloacae 118564; at most 0.5 µg/mL with K. pneumoniae 113250.
Regarding `C[C@H]1[C@H](NC(=O)/C(=N\OC(C)(C)C(=O)O)c2csc(N)n2)C(=O)N1S(=O)(=O)O` [AZT, aztreonam], the MIC in assay [1] was 32 µg/mL (≈ 73.5 µM); in [2], 32 µg/mL (≈ 73.5 µM); in the assay on E. coli 94393, at most 0.12 µg/mL; in the assay with E. coli 94474, at most 0.12 µg/mL; with E. cloacae 118564, at most 0.12 µg/mL; in the assay on K. pneumoniae 113250, at most 0.12 µg/mL.
On to `CC(C)(O/N=C(\C(=O)N[C@@H]1C(=O)N2C(C(=O)[O-])=C(C[n+]3ccccc3)CS[C@H]12)c1csc(N)n1)C(=O)O` [CAZ, ceftazidime], for which the MIC in [1] is 512 µg/mL (≈ 937 µM); in [2] it was 16 µg/mL (≈ 29.3 µM); in the assay with E. coli 94393, at most 0.25 µg/mL; with E. coli 94474 it was 0.5 µg/mL (≈ 0.915 µM); in the assay on E. cloacae 118564 it was 0.5 µg/mL (≈ 0.915 µM); in the assay on K. pneumoniae 113250, 0.5 µg/mL (≈ 0.915 µM).
Consider `O=C(N[C@H](CO)[C@H](O)c1ccc([N+](=O)[O-])cc1)C(Cl)Cl` [Chloramphenicol, chloramphenicol, reference compound], for which the MIC in [1] amounted to 1020 µg/mL (≈ 3170 µM); in assay [2], 2050 µg/mL (≈ 6340 µM); in the assay with A. baumannii AB027 it was 128 µg/mL (≈ 396 µM); in the assay on E. coli 94393, 4 µg/mL (≈ 12.4 µM); with E. coli 94474, 4 µg/mL (≈ 12.4 µM); with K. pneumoniae 113250, 4 µg/mL (≈ 12.4 µM). The MICantibiotic in the assay on P. aeruginosa PAO1 is 32 µg/mL and 16 µg/mL; in the assay with A. baumannii ATCC 17978, 128 µg/mL and 64 µg/mL. Also, the MICchloramphenicol is 64 µg/mL with MRSA ATCC 33592; 8 µg/mL and 16 µg/mL in the assay with S. aureus ATCC 29213; 8 µg/mL and 16 µg/mL with MRSE 61589; 4 µg/mL and 8 µg/mL in the assay on MSSE 81388; 4 µg/mL and 8 µg/mL in the assay on E. faecalis ATCC 29212; 8 µg/mL and 4 µg/mL with E. faecium ATCC 27270.
With `CNC(C)C1CCC(N)C(OC2C(N)CC(N)C(OC3OCC(C)(O)C(NC)C3O)C2O)O1` (stereo not shown) [GEN, gentamicin], the MIC was over 32 µg/mL in [1]; over 32 µg/mL in assay [2]; 32 µg/mL (≈ 67 µM) in the assay with A. baumannii AB027; at most 0.5 µg/mL in the assay with E. coli 94393; 16 µg/mL (≈ 33.5 µM) in the assay on E. coli 94474; 1 µg/mL (≈ 2.09 µM) in the assay with E. cloacae 118564. Further, in the assay with K. pneumoniae 113250, the MIC is at most 0.5 µg/mL.
As to `CN(C)[C@@H]1C(O)=C(C(N)=O)C(=O)[C@@]2(O)C(O)=C3C(=O)c4c(O)c(NC(=O)CN5CCCC5)cc(F)c4C[C@H]3C[C@@H]12` [ERC, eravacycline], the MIC amounted to 8 µg/mL (≈ 14.3 µM) in assay [1]; 8 µg/mL (≈ 14.3 µM) in assay [2]; 0.5 µg/mL (≈ 0.895 µM) in the assay with A. baumannii AB027; 0.5 µg/mL (≈ 0.895 µM) in the assay on E. coli 94393; 1 µg/mL (≈ 1.79 µM) with E. coli 94474; 1 µg/mL (≈ 1.79 µM) with K. pneumoniae 113250.
Regarding `C[C@H]1c2cccc(O)c2C(=O)C2=C(O)[C@]3(O)C(=O)C(C(N)=O)=C(O)[C@@H](N(C)C)[C@@H]3[C@@H](O)[C@@H]21` [DOX, doxycycline], the MIC is 32 µg/mL (≈ 72 µM) in assay [1]; 1020 µg/mL (≈ 2300 µM) in assay [2]; 4 µg/mL (≈ 9 µM) in the assay on E. coli 94393; over 32 µg/mL in the assay with E. coli 94474; 4 µg/mL (≈ 9 µM) in the assay on E. cloacae 118564; 2 µg/mL (≈ 4.5 µM) in the assay with K. pneumoniae 113250.
